pKi: −log10 of the molar value. Structures can show the parent of a compound that is named as a salt. Where two headings read alike, the source gives them in different places.
What was measured:
urokinase (uPA) = target: T1, urokinase (uPA) (Homo sapiens, UniProt P00749); experiment: In vitro inhibition of urokinase (Ki according to Dixon, chromogenic substrate); assay type: biochemical
T1 construct: purchased Calbiochem-Novabiochem GmbH, Bad Soden, Germany
Procedure: (§1) In order to determine the inhibitory activity, 200 μl Tris buffer (0.05 mol/l containing the inhibitor, 0.154 mol/l NaCl, pH 8.0), 25 μl substrate (Pefachrome uPA, Pefachrome PL or Pefabloc TH in H2O; Pentapharm Ltd, Basle, Switzerland) and 50 μl urokinase (Calbiochem-Novabiochem GmbH, Bad Soden, Germany) or another appropriate protease e.g. plasmin, thrombin or FXa are incubated for 10 minutes at 30° C. After ca. 30 minutes and 30 cycles the absorption is determined at 405 nm by means of a microplate reader (Mediators PHL, Aureon Biosystems, Vienna, Austria). The Ki values were determined according to Dixon by linear regression using a computer program.

[1] = Oral bioavailability and plasma kinetics in mice (serum concentration); assay type: in vivo, Balb/c mice; settings: mouse; for concentration at 20 min / concentration at 40 min / concentration at 60 min: female, Balb/c, serum, po; for concentration at 20 min: sample at 20 minutes; for concentration at 40 min: sample at 40 minutes; for concentration at 60 min: sample at 60 minutes
Thrombin = Thrombin (Homo sapiens, UniProt P00734); experiment: In vitro inhibition of thrombin (Ki according to Dixon); assay type: biochemical
Procedure: as §1

Caco-2 cell monolayers = experiment: Caco-assay: transport across Caco-2 cell monolayers; assay type: in vitro ADME, human; settings: for % amount in the basolateral compartment: 10 μg/ml apical, four hours
Procedure: Transport of the compounds WX-508, WXC-316, WXC-318, WXC-324, WXC-340, WX-532, WX-538, WX-550 and WX-582 across Caco-2 cell monolayers was investigated. In this experiment the bioavailability of the said compounds after oral administration was assessed.
Caco-2-cells (American Type Culture Collection, Rockville, Md., USA) were cultured in Dulbecco's modified Eagle medium (DMEM) (Life Technologies, Gibco BRL, UK) containing 10% vol/vol heat-denatured foetal calf serum (FCS), 1% vol/vol non-essential amino acids, 160 U/ml benzylpenicillin and 100 U/ml streptomycin (Sigma Chemical, St. Louis, Mo., USA). The cells are kept at 37° C. in an atmosphere comprising 95% air and 5% CO2 at 90% relative air humidity. The cells are cultured in […] culture flasks, the medium being replaced every second day and the cells are trypsinized once per week.
For the transport investigations the Caco-2 cells are cultured on porous polycarbonate filter membranes having a pore size of 0.4 μm and a surface of 4.7 cm^2 in clusters of 6 wells (Costar Transwell, Badhoevedorp, Netherlands). The cells are inoculated on each filter at an initial density of 10^4 cells/cm^2. These cells are kept at 37° C. in one of the atmospheres described above. The medium is replaced every second day for a period of three weeks.
On the day of the transport experiment the culture medium was replaced by the same volume of Hank's balanced saline solution (HBSS) buffered with 30 mM HEPES at pH 7.2 (transport medium) and the cells are allowed to equilibrate for 1 hour. Afterwards the apical medium is replaced by 1.5 ml of a solution containing one of the compounds in HBSS/HEPES (10 μg/ml). Cell monolayers are incubated for four hours. Samples of the apical and basolateral compartments are removed at the end of the experiments and used to quantitatively determine the transport of the respective compounds.
The transepithelial electric resistance (TEER) is measured before and after equilibration using a Milicell ERS meter which was connected to a pair of electrodes in order to ensure the integrity of the monolayers formed on the filters. TEER is also measured at the end of the experiments to ensure that the cell monolayer remains coherent.
Samples are taken from the apical and the basolateral side and analysed in a beta counter after adding a scintillation cocktail. All experiments were carried out three times.

PK = PK (Homo sapiens, UniProt P03952); experiment: In vitro inhibition of PK (Ki); assay type: biochemical; settings: summary table
Procedure: as §1

Plasmin = Plasmin (Homo sapiens, UniProt P00747); experiment: In vitro inhibition of plasmin (Ki according to Dixon); assay type: biochemical
Procedure: as §1

FXa = FXa (Homo sapiens, UniProt P00742); experiment: In vitro inhibition of FXa (Ki according to Dixon); assay type: biochemical
Procedure: as §1

[2] = list of test substances of Example 17, read-out: Ki human uPA
[3] = summary table, read-out: Ki uPA
[4] = 30 mg/kg, 30 mg/kg oral, read-out: c in the serum 1st analysis
[5] = 300 mg/kg, 300 mg/kg oral, read-out: c in the serum 1st analysis
[6] = 300 mg/kg, 300 mg/kg oral, read-out: c in the serum 2nd analysis
[7] = 10 mg/kg i.v., time of sample collection 0
[8] = 10 mg/kg i.v., time of sample collection 10
[9] = 10 mg/kg i.v., time of sample collection 30
[10] = 7.5 mg/kg, 7.5 mg/kg oral, read-out: c in the serum 1st analysis
[11] = 75 mg/kg, 75 mg/kg oral, read-out: c in the serum 1st analysis
[12] = 2.5 mg/kg i.v., time of sample collection 0
[13] = 2.5 mg/kg i.v., time of sample collection 10
[14] = 2.5 mg/kg i.v., time of sample collection 30

PK, sequence (P03952 20-638): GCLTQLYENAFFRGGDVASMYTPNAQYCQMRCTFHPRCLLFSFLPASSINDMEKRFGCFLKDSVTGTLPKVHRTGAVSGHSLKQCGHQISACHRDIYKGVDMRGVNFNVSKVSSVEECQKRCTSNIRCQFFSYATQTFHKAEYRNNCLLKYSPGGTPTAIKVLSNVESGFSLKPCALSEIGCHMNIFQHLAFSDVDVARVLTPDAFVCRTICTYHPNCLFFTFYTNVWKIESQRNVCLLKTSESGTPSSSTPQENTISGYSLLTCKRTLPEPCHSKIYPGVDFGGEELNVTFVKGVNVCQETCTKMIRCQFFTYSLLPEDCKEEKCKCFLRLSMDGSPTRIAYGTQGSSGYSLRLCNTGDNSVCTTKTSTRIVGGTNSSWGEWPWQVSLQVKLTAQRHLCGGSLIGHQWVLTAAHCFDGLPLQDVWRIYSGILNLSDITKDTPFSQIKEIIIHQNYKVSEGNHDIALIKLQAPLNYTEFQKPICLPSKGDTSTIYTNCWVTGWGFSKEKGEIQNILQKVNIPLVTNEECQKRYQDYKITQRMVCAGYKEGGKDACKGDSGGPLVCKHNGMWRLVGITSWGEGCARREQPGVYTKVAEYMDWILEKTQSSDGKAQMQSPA
Plasmin, sequence (P00747 581-810 limits assumed, species assumed): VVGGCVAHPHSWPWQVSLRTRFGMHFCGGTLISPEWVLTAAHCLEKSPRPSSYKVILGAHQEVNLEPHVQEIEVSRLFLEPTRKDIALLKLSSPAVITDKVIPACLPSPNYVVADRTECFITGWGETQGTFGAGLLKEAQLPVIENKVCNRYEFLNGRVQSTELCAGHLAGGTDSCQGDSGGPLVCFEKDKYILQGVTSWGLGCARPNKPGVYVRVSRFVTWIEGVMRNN
Plasmin, sequence (P00747 97-580 partner limits assumed, species assumed): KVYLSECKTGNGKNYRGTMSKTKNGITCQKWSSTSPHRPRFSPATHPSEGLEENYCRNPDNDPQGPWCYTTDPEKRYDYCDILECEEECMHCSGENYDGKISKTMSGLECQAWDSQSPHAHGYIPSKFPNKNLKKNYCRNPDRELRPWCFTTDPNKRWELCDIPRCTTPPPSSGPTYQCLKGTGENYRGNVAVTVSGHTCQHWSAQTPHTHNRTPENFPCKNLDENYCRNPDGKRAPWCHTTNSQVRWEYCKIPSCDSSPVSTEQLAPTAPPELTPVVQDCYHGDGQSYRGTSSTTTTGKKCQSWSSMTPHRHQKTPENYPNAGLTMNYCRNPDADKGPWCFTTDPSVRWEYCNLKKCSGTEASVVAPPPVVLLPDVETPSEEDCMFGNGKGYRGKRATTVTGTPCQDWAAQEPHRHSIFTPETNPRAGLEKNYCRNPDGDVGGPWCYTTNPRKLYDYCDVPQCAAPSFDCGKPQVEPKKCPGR
FXa, sequence (P00742 235-488 limits assumed): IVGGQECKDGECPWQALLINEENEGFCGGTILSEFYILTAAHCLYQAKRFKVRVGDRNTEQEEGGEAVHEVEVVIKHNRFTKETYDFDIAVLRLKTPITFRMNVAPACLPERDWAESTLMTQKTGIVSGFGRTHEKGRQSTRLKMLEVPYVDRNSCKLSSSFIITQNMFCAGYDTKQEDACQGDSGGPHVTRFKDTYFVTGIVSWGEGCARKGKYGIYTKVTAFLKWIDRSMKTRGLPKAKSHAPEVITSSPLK
FXa, sequence (P00742 41-179 partner limits assumed): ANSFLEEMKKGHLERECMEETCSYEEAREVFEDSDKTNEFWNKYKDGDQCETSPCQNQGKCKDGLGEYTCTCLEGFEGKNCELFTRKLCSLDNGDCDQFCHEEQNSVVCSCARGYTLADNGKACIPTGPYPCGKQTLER

SMILES	pKi (urokinase (uPA); [2])	pKi (urokinase (uPA); read-out: Ki uPA)	pKi (urokinase (uPA); [3])	concentration at 20 min [1, 4] [ng/mL]	concentration at 40 min [1, 4] [ng/mL]	concentration at 60 min [1, 4] [ng/mL]	concentration at 20 min [1, 5] [ng/mL]	concentration at 40 min [1, 5] [ng/mL]	concentration at 60 min [1, 5] [ng/mL]	c in the serum 1st analysis [1, 7] [µg/mL]	c in the serum 1st analysis [1, 8] [µg/mL]	c in the serum 1st analysis [1, 9] [µg/mL]	% amount in the basolateral compartment (Caco-2 cell monolayers; first value column) [%]	% amount in the basolateral compartment (Caco-2 cell monolayers; second value column) [%]	% amount in the basolateral compartment (Caco-2 cell monolayers; third value column) [%]	Caco-2 assay % basolateral (Caco-2 cell monolayers; first series, first value)	Caco-2 assay % basolateral (Caco-2 cell monolayers; first series, second value)	Caco-2 assay % basolateral (Caco-2 cell monolayers; first series, third value)	pKi (PK)	pKi (Plasmin)	other results
C[C@H](NC(=O)C(CO)NS(=O)(=O)Cc1ccccc1)C(=O)NCc1ccc(NC(=N)N)cc1 (stereo partly drawn) [WX-532, Benzylsulfonyl-(D)-Ser-Ala-(4-guanidinobenzyl)amide hydrochloride]	7.80	7.80	7.80	1500	10900	900	5800	2900	12800	61.7	3.8	11.4	0	0	0	0/0/0%	0/0/0%	0/0/0%	4.31	4.40	concentration at 20 min [1, 6]: 6700 ng/mL; concentration at 40 min [1, 6]: 3300 ng/mL; concentration at 60 min [1, 6]: 15000 ng/mL; c in the serum 2nd analysis [1, 7]: 68.8 µg/mL; c in the serum 2nd analysis [1, 8]: 3.5 µg/mL; c in the serum 2nd analysis [1, 9]: 11.2 µg/mL; Ki Thrombin (Thrombin): no inh. at 100 μM *); Ki Thrombin (Thrombin; summary table): no inh. at 100 μM *)
CN(CC(=O)NCc1ccc(NC(=N)N)cc1)C(=O)C(CO)NS(=O)(=O)Cc1ccccc1 (stereo not shown) [WX-538, benzylsulfonyl-(D)-Ser-N-Me-Gly-(4-guanidinobenzyl)amide]	7.39	7.39	7.39	100	50	200	2500	3500	2300	45.8	5.5	0.6	0.2	0.2	0.1	0.2%	0.2%	0.1%	3.96	3.89	pKi (Thrombin): < 4.00; pKi (Thrombin; summary table): < 4.00; Caco-2 assay % basolateral (Caco-2 cell monolayers; second series, first value): 0.1%; Caco-2 assay % basolateral (Caco-2 cell monolayers; second series, second value): 0.1%; Caco-2 assay % basolateral (Caco-2 cell monolayers; second series, third value): 0%; pKi (FXa): < 4.00; pKi (FXa; summary table): < 4.00
N=C(N)Nc1ccc(CNC(=O)[C@H](CCc2ccccc2)NC(=O)C(CO)NS(=O)(=O)Cc2ccccc2)cc1 (stereo partly shown) [WX-550, Benzylsulfonyl-(D)-Ser-HomoPhe-(4-guanidinobenzyl)amide hydrochloride]	7.00	7.00	7.00										0	3.1	0.6	0%	3.1%	0.6%	3.57	5.60	concentration at 20 min [1, 10]: 0 ng/mL; concentration at 40 min [1, 10]: 0 ng/mL; concentration at 60 min [1, 10]: 0 ng/mL; concentration at 20 min [1, 11]: 0 ng/mL; concentration at 40 min [1, 11]: 300 ng/mL; concentration at 60 min [1, 11]: 0 ng/mL; c in the serum 1st analysis [1, 12]: 7.2 µg/mL; c in the serum 1st analysis [1, 13]: 0.7 µg/mL; c in the serum 1st analysis [1, 14]: 0.02 µg/mL; pKi (Thrombin): < 4.30; pKi (Thrombin; summary table): < 4.30; pKi (FXa): < 4.00; pKi (FXa; summary table): < 4.00
C[C@@H](C(=O)NCc1ccc(NC(=N)N)cc1)N(C)C(=O)[C@@H](CO)NS(=O)(=O)Cc1ccc(Cl)cc1 [WX-582, 4-chlorobenzylsulfonyl-(D)-Ser-N-Me-Ala-(4-guanidinobenzyl)amide]	8.00	8.00											0.4	3.1	5.2	0%	3.1%	5.2%	4.24		concentration at 20 min [1, 10]: 0 ng/mL; concentration at 40 min [1, 10]: 0 ng/mL; concentration at 60 min [1, 10]: 0 ng/mL; concentration at 20 min [1, 11]: 1000 ng/mL; concentration at 40 min [1, 11]: 700 ng/mL; concentration at 60 min [1, 11]: 400 ng/mL; c in the serum 1st analysis [1, 12]: 11.5 µg/mL; c in the serum 1st analysis [1, 13]: 0.8 µg/mL; c in the serum 1st analysis [1, 14]: 0.1 µg/mL; Caco-2 assay % basolateral (Caco-2 cell monolayers; second series, first value): 0.4%; Caco-2 assay % basolateral (Caco-2 cell monolayers; second series, second value): 2.9%; Caco-2 assay % basolateral (Caco-2 cell monolayers; second series, third value): 3.0%
